The values below come from US12049543B2, “Copolymer containing cyclic nitroxide radical and trialkoxysilyl in side chain, and use thereof” (CrestecBio Inc., priority 2017, dated 2024).

Structures are written as SMILES.

The test system of the test is TWNT-1 (CVCL J364) hepatic stella cells. To be noted: incubation 2 days.

Text: In the case of this assay kit, it is necessary to note that, although the sorafenib@siRNP can be dissolved in phosphate-buffered saline (PBS), free sorafenib is required to be dissolved in dimethylsulfoxide (DMSO).

As to `CNC(=O)c1cc(Oc2ccc(NC(=O)Nc3ccc(Cl)c(C(F)(F)F)c3)cc2)ccn1` [sorafenib], the “inhibition of proliferation of TWNT-1” value is given as “inhibits the proliferation of TWNT-1”.
